This assay addresses T1, Pantetheinase (Homo sapiens, UniProt O95497).
T1 sequence (O95497 whole entry): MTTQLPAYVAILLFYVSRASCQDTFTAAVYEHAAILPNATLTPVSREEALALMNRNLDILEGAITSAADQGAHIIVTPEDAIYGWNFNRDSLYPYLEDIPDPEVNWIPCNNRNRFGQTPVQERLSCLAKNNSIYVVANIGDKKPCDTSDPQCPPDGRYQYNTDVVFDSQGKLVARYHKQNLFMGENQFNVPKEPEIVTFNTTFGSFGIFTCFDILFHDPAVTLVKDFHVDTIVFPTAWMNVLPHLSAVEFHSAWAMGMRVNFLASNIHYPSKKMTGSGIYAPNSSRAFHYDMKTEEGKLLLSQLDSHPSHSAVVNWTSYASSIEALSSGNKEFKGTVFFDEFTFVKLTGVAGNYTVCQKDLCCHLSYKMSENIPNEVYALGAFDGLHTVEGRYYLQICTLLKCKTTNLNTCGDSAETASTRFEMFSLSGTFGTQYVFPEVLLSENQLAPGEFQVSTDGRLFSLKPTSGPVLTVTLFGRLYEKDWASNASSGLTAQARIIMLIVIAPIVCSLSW
The experiment in a line: Vanin-1 Recombinant Enzyme Activity Inhibition Assay.

Each structure is given as a SMILES string.

In general, IC50 refers to the concentration that gives 50% inhibition.

Protocol: A certain mass of the compound was weighed precisely, and prepared with DMSO and reaction buffer (50 mM Tris base, 50 mM KCl, 1.6 mM cysteamine, 0.005% Brij 35, pH 8.0, prepared when using) to a maximum concentration of 10000 nM, then diluted in a 4-fold gradient, and prepared into 10 compound working solutions with different concentrations;for the activity inhibition reaction of recombinant human Vanin-1 (Biorab, JN0618), 2.5 μL of compound working solution and 5 μL of recombinant human Vanin-1 protein were first mixed.

With `O=C(c1cnc(NCc2ccccc2)nc1)N1CCC2(CCOCC2)C1` [US20240124479, Compound 5], the concentration for half-maximal inhibition (IC50) stood at 65 nM.

In the case of `CC(Nc1ncc(C(=O)N2CCC3(CCOCC3)C2)cn1)c1ccccc1` (stereo not given) [US20240124479, Compound 6], the IC50 is 6 nM.

Take `O=C(c1cnc(NCc2ccc(F)cc2F)nc1)N1CCC2(CCOCC2)C1` [US20240124479, Compound 12]: the IC50 is 17 nM.

`CC(Nc1ncc(C(=O)N2CCC3(CCOCC3)C2)cn1)c1ccc(OC(F)F)cc1Cl` (stereo not given) [US20240124479, Compound 27]: the IC50 turned out to be 0.4 nM.

For `C[C@@H](Nc1ncc(C(=O)N2CCC3(CCOCC3)C2)cn1)c1ccc(C(F)(F)F)cc1Cl` [US20240124479, Compound 28], the IC50 worked out at 0.8 nM.

For `C[C@H](Nc1ncc(C(=O)N2CCC3(CCOCC3)C2)cn1)c1ccc(C(F)(F)F)cc1Cl` [US20240124479, Compound 29], the IC50 came to 0.4 nM.

For `CC(=O)N(C)[C@H]1CCN(C(=O)c2cnc(NC(C)c3c(F)cccc3C(F)(F)F)nc2)C1` (stereo not given in full) [US20240124479, Compound 38], the IC50 was found to be 0.1 nM.

Regarding `CC(=O)N(C)[C@H]1CCN(C(=O)c2cnc(NC(C)c3ccc(F)cc3Cl)nc2)C1` (stereo not given in full) [US20240124479, Compound 39], the IC50 turned out to be 1.8 nM.

On to `CC(=O)N(C)[C@H]1CCN(C(=O)c2cnc(N[C@H](C)c3ccc(C(F)(F)F)cc3F)nc2)C1` [US20240124479, Compound 41-P2], for which the IC50 is 0.3 nM.

`CC(=O)N(C)[C@H]1CCN(C(=O)c2cnc(NC(C)c3ccc(C(F)(F)F)cc3F)nc2)C1` (stereo not given in full) [US20240124479, Compound 41]: the IC50 was determined as 0.2 nM.

Source of the values: BindingDB's records for patent US20240124479 (Shanghai Meiyue Biotech Development Co., 2024).
